According to ChEMBL document CHEMBL1201862, “PubChem BioAssay data set” (2004):
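The compound was tested at five concentrations on cells cultured in 96-well plates, with a 48-hour exposure period. GI50: concentration for 50% inhibition of growth.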 The source made the active and inactive calls. No stated cut-off is given here; in the data, active = GI50 up to about 1.1 µM and inactive = higher.

Experiments:
Test in all cases: growth of human tumour cells (NCI), 48 h
[1] = test system: 786-0
[2] = test system: ACHN
[3] = test system: CCRF-CEM
[4] = test system: HOP-92
[5] = test system: HT-29
[6] = test system: Hs-578T
[7] = test system: IGROV-1
[8] = test system: K562
[9] = test system: KM12
[10] = test system: MDA-N
[11] = test system: Malme-3M
[12] = test system: NCI-H23
[13] = test system: NCI-H460
[14] = test system: NCI/ADR-RES
[15] = test system: OVCAR-8
[16] = test system: SF-268
[17] = test system: SF-295
[18] = test system: SK-MEL-2
[19] = test system: SK-MEL-5
[20] = test system: A498

| Compound | GI50 [1] | GI50 [2] | GI50 [3] | GI50 [4] | GI50 [5] | GI50 [6] | GI50 [7] | GI50 [8] | GI50 [9] | GI50 [10] | GI50 [11] | GI50 [12] | GI50 [13] | GI50 [14] | GI50 [15] | GI50 [16] | GI50 [17] | GI50 [18] | GI50 [19] | GI50 [20] |
| --- | --- | --- | --- | --- | --- | --- | --- | --- | --- | --- | --- | --- | --- | --- | --- | --- | --- | --- | --- | --- |
| O=S(=O)(/C=C/C=C/S(=O)(=O)c1ccccc1)c1ccccc1 | 0.537 µM (active) | 0.769 µM (active) | 0.151 µM (active) | 1.37 µM (inactive) | 1.18 µM (inactive) | 2.43 µM (inactive) | 4.56 µM (inactive) | 0.269 µM (active) | 2.29 µM (inactive) | 1.24 µM (inactive) | 1.17 µM (inactive) | 1.35 µM (inactive) | 6.1 µM (inactive) | 1.93 µM (inactive) | 0.573 µM (active) | 1.7 µM (inactive) | 10.4 µM (inactive) | 2.72 µM (inactive) | 0.853 µM (active) |  |
| O=C1c2ccccc2C(=O)c2c(Nc3ccc4c5c(cccc35)C(=O)c3ccccc3-4)cccc21 | > 100 µM (inactive) | > 100 µM (inactive) |  | > 100 µM (inactive) | > 100 µM (inactive) | > 100 µM (inactive) | 71.1 µM (inactive) | > 100 µM (inactive) | > 100 µM (inactive) | > 100 µM (inactive) | > 100 µM (inactive) | > 100 µM (inactive) | > 100 µM (inactive) | > 100 µM (inactive) |  | > 100 µM (inactive) | > 100 µM (inactive) | > 100 µM (inactive) | > 100 µM (inactive) | > 100 µM (inactive) |
| O=C(Nc1nc(C23CC4CC(CC(C4)C2)C3)cs1)c1cc2cc(Cl)ccc2oc1=O | > 100 µM (inactive) | > 100 µM (inactive) | > 100 µM (inactive) | > 100 µM (inactive) | > 100 µM (inactive) | 71.1 µM (inactive) | > 100 µM (inactive) | > 100 µM (inactive) | > 100 µM (inactive) | > 100 µM (inactive) | > 100 µM (inactive) | > 100 µM (inactive) | > 100 µM (inactive) | > 100 µM (inactive) | > 100 µM (inactive) | > 10 µM (inactive) | > 100 µM (inactive) |  | > 100 µM (inactive) | > 100 µM (inactive) |
| O=c1[nH]nc(-c2ccccc2)n1/N=C\CC/C=N\n1c(-c2ccccc2)n[nH]c1=O | 26.5 µM (inactive) | 36.6 µM (inactive) | > 10 µM (inactive) | 25.5 µM (inactive) | 19.4 µM (inactive) | 24.9 µM (inactive) | > 49.9 µM (inactive) | 31.1 µM (inactive) | 34.8 µM (inactive) | 20 µM (inactive) | 25.2 µM (inactive) | 14.3 µM (inactive) | > 47.6 µM (inactive) | 38.5 µM (inactive) | 30.1 µM (inactive) | 26.1 µM (inactive) | 47.3 µM (inactive) | 20.2 µM (inactive) | 21.6 µM (inactive) |  |
| NC(=O)c1nnc2cc(F)c(F)cc2c1N | 32.4 µM (inactive) | 52.1 µM (inactive) | > 100 µM (inactive) |  | > 100 µM (inactive) | 26.7 µM (inactive) | 47.5 µM (inactive) | > 100 µM (inactive) | > 100 µM (inactive) | > 100 µM (inactive) | 29.7 µM (inactive) | 23.3 µM (inactive) | 58.3 µM (inactive) | 27.6 µM (inactive) | 37.3 µM (inactive) | 21.6 µM (inactive) | 27.3 µM (inactive) | 15 µM (inactive) | 87.1 µM (inactive) | 41.1 µM (inactive) |
